Values of other authors in PMC8497432 (ChemMedChem, 2021).

Conditions: ref 6f

Substance: UNC3866
- cell permeability: approximately 5%
